Experimental data taken from PMC5933457, “Probing biological activity through structural modelling of ligand-receptor interactions of 2,4-disubstituted thiazole retinoids” (Bioorganic & Medicinal Chemistry, 2018).

Assays:
[1] = biological target: T1, RARβ ligand-binding domain (GST-RAR-β-LBD) (Homo sapiens, UniProt P10826); assay: LanthaScreen TR-FRET RARβ co-activator (receptor binding) assay; assay type: biochemical; settings: for EC50: estimated EC50, TR-FRET co-activator assay, 4 h incubation, read-out: EC50 (95% confidence range) RARβ; for binding-curve upper asymptote (coactivator recruitment), RARβ: in words, Fig. 6B
T1 construct: purchased Invitrogen
T1 sequence (P10826 183-417 limits assumed): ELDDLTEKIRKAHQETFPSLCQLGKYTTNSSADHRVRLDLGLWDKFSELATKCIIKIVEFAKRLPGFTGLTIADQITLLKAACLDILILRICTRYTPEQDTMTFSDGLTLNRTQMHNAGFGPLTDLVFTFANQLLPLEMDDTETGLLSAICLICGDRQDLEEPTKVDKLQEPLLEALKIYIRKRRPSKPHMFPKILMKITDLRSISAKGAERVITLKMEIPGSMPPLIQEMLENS
Method: (§1) These predictions were tested through a receptor-binding assay for each RAR isotype (Fig. 6), where the assay signal is dependent on two parameters: the binding affinity of ligand to the RAR LBD, and the affinity of the coactivator for the ligand-LBD complex. For this assay, binding curves and variation in level of the upper asymptote can reflect differences in co-activator affinity for the ligand-LBD complex; variation in affinity of ligand for LBD shifts the midpoint (EC50) of the binding curve, whereas changes in the level of the upper asymptote may result from changes in coactivator affinity for the ligand-LBD complex alone, or in combination with changes in affinity for ligand with LBD.[23]
(§2) The binding interaction of each retinoid with RARα, β and γ were determined in vitro by time-resolved fluorescence resonance energy transfer (TR-FRET) using the LanthaScreen TR-FRET RARα, RARβ, and RARγ co-activator assays according to the manufacturer’s (Invitrogen™) instructions.[23] This uses a terbium-labeled anti-GST antibody, a fluorescein-labeled co activator peptide, and RARα/β/γ ligand-binding domains (LBD) that are tagged with glutathione-S-transferase (GST) in a homogenous assay format. All experiments were performed in black, 384-well low-volume plates in the dark at RT with a 4 h incubation time. The final assay volume was 20 μL and all dilutions were carried out using TR-FRET assay buffer, with a final DMSO concentration of 1%. A mixture of either 3.5 nM GST-RAR-α-LBD or 2.5 nM GST-RAR-β-LBD or 3 nM GST-RAR-γ-LBD with 62.5 nM Tb-anti GST antibody and 30 μM fluorescein-labeled peptide and retinoid or DMSO control was added to each of the wells. Each ligand assay was performed in duplicate and measured using a PHERAstar FS Microplate Reader (BMG Labtech, Ortenberg, Germany) with instrument settings as described in the manufacturer’s instructions for LanthaScreen assays. The TR-FRET signal was expressed as the ratio of the signals at 520 nm and 490 nm. The data were fitted to a three-parameter ligand-binding curve using SigmaPlot (version 12.5, Systat Software Inc., San Jose CA) and normalized to the lower asymptote of each binding curve. […] Since the assay involves interactions between ligand and LBD, and ligand-dependent interactions between the LBD and fluorescein-labeled co activator, the binding assay data were interpreted by simulating these coupled chemical reactions using the biochemical simulator COPASI version 4.3.[23], [54]
(§3) The readout of the Lanthascreen TR-FRET binding assay is based on a Forster resonance energy transfer (FRET) signal generated from the interaction between a terbium-labelled anti-glutathione-S-transferase (GST) antibody and a fluorescein-labelled coactivator peptide. The RAR ligand-binding domain (LBD) is a GST fusion protein and interaction between the LBD and the fluorescein-labelled coactivator peptide is driven by the binding of ligand to the LBD, and detected by the FRET signal from the terbium/fluorescein interaction when the terbium-labelled anti-GST binds the LBD fusion protein. The output of the assay thus relies on two binding interactions: ligand with LBD, and ligand-bound LBD with the coactivator peptide. As both interactions may be affected by the fit of ligand to the binding pocket of the LBD, we used the biochemical pathway simulator COPASI^1 to build a simple model of how the FRET signal output in the assay will vary according to differential changes in the kinetics of the two binding interactions. Reactions were modelled deterministically using mass-action kinetics described by ordinary differential equations (ODE) within COPASI.^1 This model enables us to assess the effect of different rate constants and varying ligand concentration on the formation of the final ternary complex that is the read-out from the Lanthascreen TR-FRET assay.

TERA2.cl.SP12 cells = assay: Immunocytochemistry for A2B5, TUJ-1 and cytokeratin 8; assay type: cell-based, human; settings: for expression of epithelial phenotype marker cytokeratin 8: 10 μM, 1, 2 and 3 weeks, Fig. 7D; for neuronal differentiation by TUJ-1 staining: up to 3 weeks
Method: Third, we carried out assessment of protein expression using immunofluorescent techniques on cultures of TERA2.cl.SP12 cells treated with retinoids.
TERA2.cl.SP12 cells were seeded at 5000 cells per well on poly-D-lysine (25 μg/ml) coated cover slips in 6-well plates. Cells were treated with each retinoid at a concentration of 10 μM for 7, 14 and 21 days (the media was changed every 3–4 days). Cells were also treated with 1% DMSO for the same time periods as a […] control. At the end of the treatment period, cells were fixed (4% para-formaldehyde in PBS for 30 min at room temperature (RT) and rinsed with PBS. One set of experiments was used for the cell surface marker A2B5 (diluted 1:100, R&D systems), and the other set was prepared for intracellular staining using 1% Triton-X-100 (Sigma Aldrich) in PBS as a permeabilizing agent for 10 min at RT. Non-specific labeling was blocked by incubation with a solution of 1% goat serum (Sigma Aldrich) containing 0.2% Tween-20 (Sigma Aldrich) in PBS for one hour at RT. The primary antibodies β-III tubulin antibody (TUJ-1) (1:200, Affymetrix eBioscience) and CK-8 antibody (1:500, Affymetrix eBioscience) were diluted in blocking solution and incubated with the cells for 1 h at RT. After washing three times for 15 min with PBS, cells were incubated for 1 h in the dark with anti-mouse FITC-conjugated secondary antibody IgM (1:128, Sigma Aldrich) for A2B5 staining, and anti-mouse Alexafluor 488 IgG (1:600, Invitrogen) for TUJ-1 and CK-8 staining. Hoechst 33,342 nuclear staining dye (1:1000, Molecular Probes) was dissolved in blocking solution after the secondary antibody staining step for nuclear staining.
Immunocytofluorescent images of fixed cells were visualized using a Leica SP5 confocal microscope. Scale bars are shown at 25 μm.

[2] = biological target: T2, RARγ ligand-binding domain (GST-RAR-γ-LBD) (Homo sapiens, UniProt P13631); assay: LanthaScreen TR-FRET RARγ co-activator (receptor binding) assay; assay type: biochemical; settings: for EC50: estimated EC50, TR-FRET co-activator assay, 4 h incubation, read-out: EC50 (95% confidence range) RARγ; for binding-curve upper asymptote (coactivator recruitment), RARγ: in words, Fig. 6C
T2 construct: purchased Invitrogen
T2 sequence (P13631 185-419 limits assumed): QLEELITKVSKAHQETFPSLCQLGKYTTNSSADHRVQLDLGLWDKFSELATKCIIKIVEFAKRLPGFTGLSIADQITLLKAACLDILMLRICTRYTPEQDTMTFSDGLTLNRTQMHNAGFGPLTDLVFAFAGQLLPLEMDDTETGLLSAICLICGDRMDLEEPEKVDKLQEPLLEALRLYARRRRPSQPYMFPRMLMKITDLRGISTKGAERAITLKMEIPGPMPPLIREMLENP
Method: as §1, §2, §3

| SMILES | EC50 [1] | binding-curve upper asymptote (coactivator recruitment), RARβ [1] | expression of epithelial phenotype marker cytokeratin 8 (TERA2.cl.SP12 cells) | neuronal differentiation by TUJ-1 staining (TERA2.cl.SP12 cells; 10 μM, Fig. 7C) | EC50 [2] | binding-curve upper asymptote (coactivator recruitment), RARγ [2] | expression of neuronal differentiation marker A2B5 (immunofluorescence) (TERA2.cl.SP12 cells; 10 μM, after 7 days, Fig. 7C) |
| --- | --- | --- | --- | --- | --- | --- | --- |
| CCOCCOc1nc(-c2ccc(C(=O)O)cc2)sc1C [GZ18] | 56.7 nM | very low asymptotes | more effective | very low activity | 141 nM | very low binding-curve upper asymptotes |  |
| CCOC(=O)c1ccc(-c2nc(-c3ccccc3)c(C)s2)cc1 [GZ22] | 136 nM | high asymptote | more effective | very low activity | 383 nM |  |  |
| Cc1sc(-c2ccc(C(=O)O)cc2)nc1-c1ccc2c(c1)C(C)(C)CCC2(C)C [GZ25] | 11 nM |  | not detectable | most effective | 98.9 nM | high | induced |
